For experiment [1], the system named is 435/HAL-luc breast cancer bone metastases. Put plainly: 435/HAL-luc experimental bone metastasis model, bioluminescence imaging of tumor growth. Format: in vivo, mice. As for the experimental part: The MDA-MB-435-HAL-luc breast cancer xenograft model was used to confirm significant inhibition of the growth of breast cancer bone metastases. The presence of live tumor cells was monitored by bioluminescence imaging with the Xenogen IVIS™ system.
The human breast carcinoma cell line 435/HAL was obtained (Pharmacia Corp., St. Louis, Mo.). […] Stable transfection of 435/HAL cells with luciferase (light emitting enzyme of firefly Photinus pyralis) was then performed. The cells were cotransfected with pGL3-control (Promega, Madison, Wis.) and pTK-Hygro (Clontech, Palo Alto, Calif.) at a 1:4 ratio using Lipofectamine 2000 (Invitrogen, Carlsbad, Calif.). Cells were maintained in Hygromycin (200 μg/ml) (Invitrogen) and resistant colonies isolated by ring cloning. Hygro-resistant colonies were screened for luciferase expression using Promega brite-glo reagent, normalized as RLU/μg protein. A subclone with the highest luciferase activity was selected, which we refer to as ‘435/HAL-luc.’ […]
Mice were injected intraperitoneally with 150 mg/kg of luciferin (Xenogen Corp., Alameda, Calif.), followed by anesthetization with Ketamine/Xylazine five minutes later. […] Briefly, mice were placed on the temperature-controlled bed of the imaging chamber and a gray-scale whole body image of the ventral side of the mice was captured, followed by an overlay of a bioluminescence map representing the spatial distribution of photons detected from cleaved luciferin in the cancer cells expressing luciferase. […] The bioluminescent signal was quantified by counting the pixels within the area drawn around each site of photon emission, using a customized version of the IGOR Pro version 4.0 Software (WaveMetrics, Inc., Lake Oswego, Oreg.) called Living Image version 2.11 (Xenogen Corporation, Alameda, Calif.). The sum of all detected photon counts within a region of interest containing the entire cancer lesion was determined. For evaluation of tumor growth inhibition, the Student's t test was used to assess differences in photon emission readings between treated and control groups (p<0.05 was considered significant). […]

The subject of another experiment is serum pyridinoline (PYD). Put plainly: Serum PYD ELISA in mice bearing 435/HAL-luc bone metastases (osteolysis). Format: in vivo. The text has this:
Athymic mice were inoculated with 3×10^6 435/HAL-luc cells into the left ventricle of the heart on day 0. Twenty days later, mice were imaged using the IVIS™ imaging system and placed into two matched groups of 16 mice based on photon emission, a measure of bioluminescence of the cancer. […] Mice were imaged approximately once a week. […] The femur, mandible and spines were collected from mice treated with either compound 1 or its vehicle, and fixed in Streck's Tissue Fixative prior to bone density scanning and histological analysis. Serum was also collected for measurement of collagen breakdown product pyridinoline (PYD) in the circulation.
Serum PYD ELISA: The parental breast carcinoma line MDA-MB-435, is very well characterized as having osteolytic activity (32). […] Serum samples were collected, aliquoted and frozen at −80° C. until analysis. Serum PYD was measured using a competitive enzyme immunoassay kit following the manufacturer's protocol (Serum PYD, Quidel 8019, San Diego, Calif.). Samples were measured in duplicate.
Background: In an ELISA, binding on a coated surface is turned into a signal by an enzyme label.

Another experiment concerns the target T1, human CSF1R (Homo sapiens, UniProt P07333).
T1 construct: expressed in transfected cells; host or cells: NIH3T3 (3T3-huCSF1R)
Put plainly: CSF1R phosphorylation in 3T3-huCSF1R cells (p-CSF1R Western blot after M-CSF stimulation). Format: cell-based. Conditions: M-CSF stimulated, FIG. 1. As for the experimental part:
Cells were lysed immediately after stimulation and lysates spun at 4° C. for 20 mins. Supernatant was transferred to new microfuge tubes. For each sample, 500 μg of total protein was immunoprecipitated overnight with a rabbit polyclonal antibody to bead-conjugated human CSF1R (Santa Cruz Biotechnology, CA). A p-CSF1R Western blot was then performed, using anti-phospho-CSF1R (Tyr723) antibody (Cell Signaling Technology, Beverly, Mass.) at 1:1000 dilution.

The subject of a further experiment is osteoclast development. Kind of experiment: Murine osteoclast development in vitro (bone marrow cells + M-CSF and RANKL, TRAP quantitation). Format: cell-based, mice. As for the experimental part: Bone marrow cells were isolated from female Balb/c mice and cultured either in medium alone or with addition of 10 ng/ml murine M-CSF and 100 ng/ml murine RANK ligand (RANKL) from day 0 to induce osteoclast development. […] Osteoclast development on day 7 was assessed by colorimetric quantitation of tartrate resistant acid phosphatase activity (TRAP) as well as counting TRAP positive cells with >3 nuclei.
TRAP staining and quantitation were performed at day 6.

“Also recorded” adds a separate entry of the source.

T1 sequence (P07333 20-972): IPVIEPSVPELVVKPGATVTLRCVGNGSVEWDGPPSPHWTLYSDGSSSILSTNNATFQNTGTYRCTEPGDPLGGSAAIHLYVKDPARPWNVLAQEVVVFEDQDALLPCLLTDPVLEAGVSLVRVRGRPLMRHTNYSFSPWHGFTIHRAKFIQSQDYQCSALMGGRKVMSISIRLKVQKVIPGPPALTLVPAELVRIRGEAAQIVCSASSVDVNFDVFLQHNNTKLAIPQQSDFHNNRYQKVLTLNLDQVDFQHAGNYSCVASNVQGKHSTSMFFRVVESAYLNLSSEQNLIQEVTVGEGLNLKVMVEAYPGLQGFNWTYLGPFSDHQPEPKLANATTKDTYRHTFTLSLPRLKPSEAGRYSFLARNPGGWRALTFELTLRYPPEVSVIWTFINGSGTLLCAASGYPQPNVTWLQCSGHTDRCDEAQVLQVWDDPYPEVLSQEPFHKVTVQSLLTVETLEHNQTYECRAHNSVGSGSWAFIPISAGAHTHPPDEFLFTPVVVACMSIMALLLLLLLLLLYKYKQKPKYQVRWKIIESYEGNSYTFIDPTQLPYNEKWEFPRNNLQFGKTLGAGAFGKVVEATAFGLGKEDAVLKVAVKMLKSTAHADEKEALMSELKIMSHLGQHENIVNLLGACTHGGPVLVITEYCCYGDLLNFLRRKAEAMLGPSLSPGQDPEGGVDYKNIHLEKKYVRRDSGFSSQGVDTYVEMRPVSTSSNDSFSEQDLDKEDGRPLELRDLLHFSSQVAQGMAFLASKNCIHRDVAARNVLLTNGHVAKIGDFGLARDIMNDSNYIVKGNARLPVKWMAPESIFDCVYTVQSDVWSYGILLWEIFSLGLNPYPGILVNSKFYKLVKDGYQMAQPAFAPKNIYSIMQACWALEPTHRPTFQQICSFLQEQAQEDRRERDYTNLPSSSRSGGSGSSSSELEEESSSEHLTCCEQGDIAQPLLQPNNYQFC

For the molecule `CCN(CC)CCNC(=O)c1c(C)[nH]c(C=C2C(=O)Nc3ccc(F)cc32)c1C` [compound 1, 5-(5-Fluoro-2-oxo-1,2-dihydro-indol-3-ylidenemethyl)-2,4-dimethyl-1H-pyrrole-3-carboxylic acid (2-diethylamino-ethyl)-amide], the “live tumor / growth of breast cancer metastases by bioluminescence imaging” value in experiment [1] (MDA-MB-435-HAL-luc xenograft model) is reported as “significant reduction in live tumor; also recorded: inhibits the growth of breast cancer metastases”. Also, the “photon count emission from the mouse bones” value in experiment [1] (at both doses (80 or 40 mg per kg once daily by gavage), FIG. 3) is reported as “greatly decreased”. Besides, the “inhibition of tumor growth in bone (photon emission, long bones and mandibles)” value in experiment [1] (day 41, 80 or 40 mg per kg once daily by gavage, p=0.001) came to 89%. The “serum PYD mean value” in the experiment with serum pyridinoline (PYD) (80 mg per kg) worked out at 1.3 ± 0.16 ng/mL. Also, the “reduction of serum PYD levels compared to vehicle treated mice” value in the experiment with serum pyridinoline (PYD) (14 compound 1 treated vs 12 vehicle treated mice, p=0.047) is 30%. Besides, the “osteolysis as measured by pyridinoline levels” value in the experiment with serum pyridinoline (PYD) (mice with breast cancer metastases to bone, FIG. 4) was “less osteolysis”. Besides, at human CSF1R, the “inhibition of CSF1R phosphorylation” value is “inhibits CSF1R phosphorylation in a dose-dependent manner; also recorded: inhibits phosphorylation of M-CSF receptors”. In addition, the “effect of time of addition of compound (D0, D2 or D4) on osteoclast development” value with osteoclast development (100 nM and 10 nM, TRAP at day 6, FIG. 2b) is “the later precursor cells are exposed to compound 1, the less inhibitory effect the compound exhibits; also recorded: inhibits an early stage of osteoclast development, but not later stages”. The “concentrations at which development of osteoclasts is inhibited” value with osteoclast development (Balb/c bone marrow cells, M-CSF 10 ng/ml + RANKL 100 ng/ml, day 7, TRAP, FIG. 2a) fell in the range of 10 to 100 nM. For the same molecule, in the experiment with osteoclast development (in vitro, FIG. 2a), the “inhibition of osteoclast development” value is “inhibits osteoclast development in a dose-dependent manner”.

Values taken from patent publication US20040209937A1, “Treatment of excessive osteolysis with indolinone compounds” (SUGEN, INC., priority 2003, published 2004).
